Data taken from ChEMBL document CHEMBL4184117, “Design, synthesis and anti-malarial activities of synthetic analogs of biselyngbyolide B, a Ca2+ pump inhibitor from marine cyanobacteria” (Bioorg Med Chem Lett, 2018).

How the values were obtained:
[1] = target: Sarcoplasmic/endoplasmic reticulum calcium ATPase 1 (Homo sapiens, UniProt O14983); test: Inhibition of SERCA1a (unknown origin) ATPase activity
HeLa = test: Growth inhibition of human HeLa cells after 72 hrs by MTT assay; assay type: cell-based
MRC5 = test: Growth inhibition of human MRC5 cells after 7 days by MTT assay; assay type: cell-based; details: MRC5, 168 h
Plasmodium falciparum [2] = test: Antimalarial activity against chloroquine-resistant Plasmodium falciparum K1 infected in human type A+ erythrocytes assessed as growth inhibition after 72 hrs by LDH assay; assay type: functional, organism-based; details: K1, 72 h
Plasmodium falciparum [3] = test: Antimalarial activity against chloroquine-sensitive Plasmodium falciparum FCR3 infected in human type A+ erythrocytes assessed as growth inhibition after 72 hrs by LDH assay; assay type: functional, organism-based; details: FCR3, 72 h
Plasmodium falciparum [4] = test: Antimalarial activity against Plasmodium falciparum FcB1; assay type: functional, organism-based; details: FcB1/Columbia
Plasmodium falciparum [5] = test: Antimalarial activity against Plasmodium falciparum 3D7; assay type: functional, organism-based

Chain of Sarcoplasmic/endoplasmic reticulum calcium ATPase 1 (O14983 whole entry): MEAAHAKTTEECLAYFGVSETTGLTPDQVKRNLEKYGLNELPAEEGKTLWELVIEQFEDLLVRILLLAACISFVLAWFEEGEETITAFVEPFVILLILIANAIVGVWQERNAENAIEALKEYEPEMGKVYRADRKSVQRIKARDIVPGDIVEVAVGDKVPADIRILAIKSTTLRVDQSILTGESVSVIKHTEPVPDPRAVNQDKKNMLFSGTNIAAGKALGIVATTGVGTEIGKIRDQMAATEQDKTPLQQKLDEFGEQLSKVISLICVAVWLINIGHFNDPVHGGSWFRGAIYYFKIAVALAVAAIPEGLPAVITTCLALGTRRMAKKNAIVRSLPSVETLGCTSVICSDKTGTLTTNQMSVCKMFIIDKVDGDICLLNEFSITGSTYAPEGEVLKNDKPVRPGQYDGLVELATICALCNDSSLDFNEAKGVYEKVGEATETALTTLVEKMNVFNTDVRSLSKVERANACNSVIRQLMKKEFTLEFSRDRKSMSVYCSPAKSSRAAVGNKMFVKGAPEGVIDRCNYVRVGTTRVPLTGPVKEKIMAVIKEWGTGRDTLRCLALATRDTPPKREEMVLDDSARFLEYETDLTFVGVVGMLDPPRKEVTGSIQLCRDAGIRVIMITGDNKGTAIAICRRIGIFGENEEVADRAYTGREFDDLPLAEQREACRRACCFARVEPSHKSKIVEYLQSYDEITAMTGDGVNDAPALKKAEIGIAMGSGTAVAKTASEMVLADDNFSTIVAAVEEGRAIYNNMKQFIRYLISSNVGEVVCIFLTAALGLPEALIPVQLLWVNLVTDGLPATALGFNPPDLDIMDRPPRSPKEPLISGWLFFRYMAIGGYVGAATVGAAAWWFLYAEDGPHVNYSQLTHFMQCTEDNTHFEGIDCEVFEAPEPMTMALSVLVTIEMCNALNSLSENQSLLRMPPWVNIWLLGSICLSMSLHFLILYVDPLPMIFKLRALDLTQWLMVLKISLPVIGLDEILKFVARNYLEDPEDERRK

SMILES | Ki [1] [µM] | IC50 (HeLa) [µM] | IC50 (MRC5) [µM] | IC50 (Plasmodium falciparum [2]) [µM] | IC50 (Plasmodium falciparum [3]) [µM] | IC50 (Plasmodium falciparum [4]) [µM] | IC50 (Plasmodium falciparum [5]) [µM]
C/C=C(/C)C(=O)O[C@H]1C(C)=C2[C@H]([C@@H]1OC(=O)CCCCCCC)[C@@](C)(OC(C)=O)C[C@H](OC(=O)CCC)[C@@]1(O)[C@H]2OC(=O)[C@@]1(C)O [THAPSIGARGIN] | 0.0001 | – | – | – | – | – | –
CO[C@H]1C/C=C/[C@@H](O)CC(=O)O[C@@H](/C=C(/C)CO)C/C=C/C=C/C[C@H](C)/C=C/1C | – | > 30 | 19 | > 31 | 24 | – | –
C/C=C/C/C(C)=C\[C@H]1C/C=C/C=C/C[C@H](C)/C=C(\C)[C@@H](OC)C/C=C/[C@@H](O)CC(=O)O1 | 0.017 | 0.0028 | 0.23 | 24 | 23.5 | – | –
C/C=C/C/C(C)=C\[C@H]1C/C=C/C=C/C[C@H](C)/C=C(\C)[C@@H](OC)C/C=C/[C@@H](O[C@@H]2O[C@H](CO)[C@@H](O)[C@H](OC)[C@H]2O)CC(=O)O1 | 0.019 | 2.5 | 0.4 | 3.4 | 4.4 | – | –
CCNC(=O)/C(C)=C\[C@H]1C/C=C/C=C/C[C@H](C)/C=C(\C)[C@@H](OC)C/C=C/[C@@H](O)CC(=O)O1 | – | 9.2 | 2.9 | 16 | 17 | – | –
CC(=O)C1=C(O)[C@@H]2[C@H]3c4c[nH]c5cccc(c45)C[C@H]3C(C)(C)N2C1=O [CYCLOPIAZONIC ACID] | 1.8 | – | – | – | – | 4.9 | 8.8
CO[C@H]1C/C=C/[C@@H](O)CC(=O)O[C@@H](/C=C(/C)CNC(C)=O)C/C=C/C=C/C[C@H](C)/C=C/1C | – | 4.9 | 3 | 19 | 14 | – | –
